According to ChEMBL document CHEMBL1146306, “Design and synthesis of conformationally constrained tri-substituted ureas as potent antagonists of the human glucagon receptor” (Bioorg Med Chem Lett, 2007):

Assays:
[1] = Cmax in mouse at 1 mg/kg, iv and 2 mg/kg, po; type: ADME, organism-based; conditions: in vivo
[2] = target: T1, Gastric inhibitory polypeptide receptor (Homo sapiens, UniProt P48546); assay: Antagonist activity at human GIP receptor transfected in CHO cells assessed as inhibition of […] cAMP accumulation; type: functional, cell-based
T1 sequence (P48546 whole entry): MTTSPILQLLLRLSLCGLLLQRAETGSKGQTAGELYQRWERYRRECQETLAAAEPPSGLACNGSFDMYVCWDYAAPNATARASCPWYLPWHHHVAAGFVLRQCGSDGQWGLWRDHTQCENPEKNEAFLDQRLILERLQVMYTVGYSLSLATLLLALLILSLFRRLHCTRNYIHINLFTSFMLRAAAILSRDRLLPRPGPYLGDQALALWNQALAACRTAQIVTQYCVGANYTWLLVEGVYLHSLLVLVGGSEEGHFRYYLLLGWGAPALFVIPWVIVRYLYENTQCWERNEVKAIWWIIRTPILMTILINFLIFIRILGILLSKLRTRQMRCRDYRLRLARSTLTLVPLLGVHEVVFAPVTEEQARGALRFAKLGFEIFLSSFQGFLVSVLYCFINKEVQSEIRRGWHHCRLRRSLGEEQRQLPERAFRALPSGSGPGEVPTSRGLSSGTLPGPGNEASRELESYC

[3] = Bioavailability in mouse at 1 mg/kg, iv and 2 mg/kg, po; type: ADME, organism-based; conditions: in vivo
[4] = Volume of distribution at steady state in mouse at 1 mg/kg, iv and 2 mg/kg, po; type: ADME, organism-based; conditions: in vivo, read-out: Vdss
[5] = Half life in mouse at 1 mg/kg, iv and 2 mg/kg, po; type: ADME, organism-based; conditions: in vivo
[6] = Plasma clearance in mouse at 1 mg/kg, iv and 2 mg/kg, po; type: ADME, organism-based
Glucagon receptor [7] = target: T2, Glucagon receptor (Homo sapiens, UniProt P47871); assay: Displacement of [125]glucagon from human glucagon receptor expressed in CHO cells; type: cell-based
Glucagon receptor [8] = target: T2, Glucagon receptor; assay: Antagonist activity at human glucagon receptor transfected in CHO cells assessed as inhibition of glucagon-induced cAMP accumulation; type: functional, cell-based
Mus musculus [9] = assay: Inhibition of glucagon-induced hyperglycemic response in transgenic mouse expressing human glucagon receptor at 30 mg/kg, po after 24 mins relative to control; type: functional; conditions: 0.4 h
Mus musculus [10] = assay: Inhibition of glucagon-induced hyperglycemic response in transgenic mouse expressing human glucagon receptor at 10 mg/kg, po after 24 mins relative to control; type: functional; conditions: 0.4 h
Mus musculus [11] = assay: Decrease in non-fasting blood glucose level in transgenic diabetic mouse expressing human glucagon receptor at 3 mg/kg, po after 3 days relative to lean control; type: functional; design: scale not given: the % may be the effect or the level left
Mus musculus [12] = assay: Inhibition of glucagon-induced hyperglycemic response in transgenic mouse expressing human glucagon receptor at 3 mg/kg, po after 24 mins relative to control; type: functional; conditions: 0.4 h
Mus musculus [13] = assay: Decrease in non-fasting blood glucose level in transgenic diabetic mouse expressing human glucagon receptor at 10 mg/kg, po after 3 days relative to lean control; type: functional; design: scale not given: the % may be the effect or the level left
Mus musculus [14] = assay: Decrease in non-fasting blood glucose level in transgenic diabetic mouse expressing human glucagon receptor at 10 mg/kg, po after 10 days relative to lean control; type: functional; design: scale not given: the % may be the effect or the level left
Mus musculus [15] = assay: Decrease in non-fasting blood glucose level in transgenic diabetic mouse expressing human glucagon receptor at 3 mg/kg, po after 10 days relative to lean control; type: functional; design: scale not given: the % may be the effect or the level left
CHO = assay: Selectivity for human glucagon receptor over human GIP receptor expressed in CHO cells by glucagon-stimulated cAMP accumulation assay; type: cell-based

T2 sequence (P47871 whole entry): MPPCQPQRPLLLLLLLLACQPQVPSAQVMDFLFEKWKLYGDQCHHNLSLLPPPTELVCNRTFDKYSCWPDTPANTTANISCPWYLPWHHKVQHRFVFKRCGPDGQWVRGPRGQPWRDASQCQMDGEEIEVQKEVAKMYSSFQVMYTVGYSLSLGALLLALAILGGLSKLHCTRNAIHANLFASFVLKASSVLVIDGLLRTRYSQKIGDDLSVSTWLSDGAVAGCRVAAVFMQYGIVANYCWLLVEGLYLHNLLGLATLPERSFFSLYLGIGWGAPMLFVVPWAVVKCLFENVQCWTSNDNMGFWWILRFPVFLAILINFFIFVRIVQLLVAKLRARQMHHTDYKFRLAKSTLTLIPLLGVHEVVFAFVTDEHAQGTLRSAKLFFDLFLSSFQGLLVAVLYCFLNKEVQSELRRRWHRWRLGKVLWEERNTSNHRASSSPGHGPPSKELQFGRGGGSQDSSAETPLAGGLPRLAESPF

IC50 [2] | IC50 (Glucagon receptor [7]) | IC50 (Glucagon receptor [8]; read-out: IC50) | Compound | other results
286 nM | 18 nM | 500 nM | CC(C)(C)[C@H]1CC[C@H](N(C(=O)Cc2ccc(OC(F)(F)F)cc2)C2CCc3cc(C(=O)NCCC(=O)O)ccc32)CC1 (stereo not given in full) | –
296 nM | – | – | CC(C)(C)[C@H]1CC[C@H](N(C(=O)Nc2ccc(OC(F)(F)F)cc2)C2CCc3cc(C(=O)Nc4nn[nH]n4)ccc32)CC1 (stereo not given in full) | –
– | 22 nM | 85 nM | O=C(Nc1nn[nH]n1)c1ccc2c(c1)CCC2N(C(=O)Nc1ccc(OC(F)(F)F)cc1)c1ccc(C2CCCCC2)cc1 (stereo not given) | –
435 nM | 1.01 nM | 18 nM | CC(C)(C)[C@H]1CC[C@@H](N(C(=O)Nc2ccc(OC(F)(F)F)cc2)C2CCc3cc(C(=O)Nc4nn[nH]n4)ccc32)CC1 (single isomer, unassigned) | –
– | 820 nM | – | O=C(O)CCNC(=O)c1ccc2c(c1)CCC2N(C(=O)Nc1ccc(OC(F)(F)F)cc1)c1ccc(OC(F)(F)F)cc1 (stereo not given) | IC50 (Glucagon receptor [8]; cho): Not Active
132 nM | – | – | CC(C)(C)[C@H]1CC[C@H](N(C(=O)Nc2ccc(OC(F)(F)F)cc2)C2CCc3cc(C(=O)NCCC(=O)O)ccc32)CC1 (stereo not given in full) | Cmax [1]: 130 nM; inhibition in vivo at 30 mg/kg (Mus musculus [9]): 122%; inhibition in vivo at 10 mg/kg (Mus musculus [10]): 59%; Activity (Mus musculus [11]): 72%; bioavailability [3]: 17%; inhibition in vivo at 3 mg/kg (Mus musculus [12]): 51%; Vd [4]: 1.6 L/kg; half-life [5]: 5.6 h; Activity (Mus musculus [13]): 99%; Activity (Mus musculus [14]): 106%; Activity (Mus musculus [15]): 87%; clearance [6]: 9 mL/min/kg
– | 216 nM | 795 nM | CC(C)(C)[C@H]1CC[C@@H](N(C(=O)Nc2ccc(OC(F)(F)F)cc2)C2CCc3cc(C(=O)Nc4nn[nH]n4)ccc32)CC1 (stereo not given in full) | –
– | 3380 nM | – | CC(C)(C)[C@H]1CC[C@@H](N(C(=O)Nc2ccc(OC(F)(F)F)cc2)C2CCc3cc(C(=O)NCCC(=O)O)ccc32)CC1 (stereo not given in full) | –
603 nM | 3.8 nM | 46 nM | CC(C)(C)[C@H]1CC[C@@H](N(C(=O)Nc2ccc(OC(F)(F)F)cc2)C2CCc3cc(C(=O)NCCC(=O)O)ccc32)CC1 (single isomer, unassigned) | –
– | 62 nM | 3430 nM | O=C(Nc1nnn[nH]1)c1ccc2c(c1)CCC2N(C(=O)Nc1ccc(OC(F)(F)F)cc1)c1ccc(OC(F)(F)F)cc1 (stereo not given) | –
1280 nM | 10 nM | 11 nM | CC(C)(C)[C@H]1CC[C@H](N(C(=O)Nc2cc(Cl)cc(Cl)c2)C2CCc3cc(C(=O)NCCC(=O)O)ccc32)CC1 (stereo not given in full) | Fold change (CHO): > 100
610 nM | 49 nM | 1470 nM | CC(C)(C)[C@H]1CC[C@H](N(C(=O)c2ccc(OC(F)(F)F)cc2)C2CCc3cc(C(=O)Nc4nnn[nH]4)ccc32)CC1 (stereo not given in full) | –
118 nM | 4.8 nM | 67 nM | CC(C)(C)[C@H]1CC[C@H](N(C(=O)Cc2ccc(OC(F)(F)F)cc2)C2CCc3cc(C(=O)Nc4nnn[nH]4)ccc32)CC1 (stereo not given in full) | –

Second part, the compound before the results:

Compound | IC50 [2] | IC50 (Glucagon receptor [7]) | IC50 (Glucagon receptor [8]; read-out: IC50) | other results
CC(C)(C)[C@H]1CC[C@H](N(C(=O)Nc2ccc(OC(F)(F)F)cc2)C2CCCc3cc(C(=O)Nc4nn[nH]n4)ccc32)CC1 (stereo not given in full) | 178 nM | – | – | Cmax [1]: 40 nM; bioavailability [3]: 1.4%; Vd [4]: 1.4 L/kg; half-life [5]: 8 h; clearance [6]: 6.4 mL/min/kg
O=C(O)CCNC(=O)c1ccc2c(c1)CCC2N(C(=O)Nc1ccc(OC(F)(F)F)cc1)c1ccc(C2CCCCC2)cc1 (stereo not given) | – | 68 nM | 189 nM | –
CC(C)(C)[C@H]1CC[C@H](N(C(=O)Nc2ccc(OC(F)(F)F)cc2)C2CCCc3cc(C(=O)NCCC(=O)O)ccc32)CC1 (stereo not given in full) | 171 nM | – | – | Cmax [1]: 90 nM; bioavailability [3]: 10%; Vd [4]: 0.9 L/kg; half-life [5]: 2.5 h; clearance [6]: 9 mL/min/kg
CC(C)(C)[C@H]1CC[C@H](N(C(=O)Nc2ccc(OC(F)(F)F)cc2)C2CCOc3cc(C(=O)NCCC(=O)O)ccc32)CC1 (stereo not given in full) | 217 nM | – | – | Cmax [1]: 60 nM; bioavailability [3]: 15%; Vd [4]: 1.4 L/kg; half-life [5]: 3.4 h; clearance [6]: 13 mL/min/kg
CC(C)(C)[C@H]1CC[C@H](N(C(=O)Nc2ccc(OC(F)(F)F)cc2)C2CCOc3cc(C(=O)Nc4nn[nH]n4)ccc32)CC1 (stereo not given in full) | 117 nM | – | – | –
CC(C)(C)[C@H]1CC[C@H](N(C(=O)Nc2cc(C(F)(F)F)cc(C(F)(F)F)c2)C2CCc3cc(C(=O)Nc4nnn[nH]4)ccc32)CC1 (stereo not given in full) | 4260 nM | 7.6 nM | 61 nM | –
CC(C)(C)[C@H]1CC[C@H](N(C(=O)Nc2cc(Cl)cc(Cl)c2)C2CCc3cc(C(=O)Nc4nn[nH]n4)ccc32)CC1 (stereo not given in full) | 3530 nM | 4.9 nM | 5.9 nM | Fold change (CHO): > 500
CC(C)(C)[C@H]1CC[C@H](N(C(=O)Nc2cc(C(F)(F)F)cc(C(F)(F)F)c2)C2CCc3cc(C(=O)NCCC(=O)O)ccc32)CC1 (stereo not given in full) | 2020 nM | 28 nM | 46 nM | –
CC(C)(C)[C@H]1CC[C@H](N(C(=O)c2ccc(OC(F)(F)F)cc2)C2CCc3cc(C(=O)NCCC(=O)O)ccc32)CC1 (stereo not given in full) | – | 130 nM | 2780 nM | –
